Assay results as given in publication PMC11458808, “Identification and development of a series of disubstituted piperazines for the treatment of Chagas disease” (European Journal of Medicinal Chemistry, 2022).
Converted amounts (≈) assume the structure as drawn.

What was measured:
[1] = Intrinsic clearance in mouse liver microsomes; assay type: in vitro ADME; conditions: mouse liver microsomal intrinsic clearance
Method: 2.2 Intrinsic clearance: This assay was conducted as previously described in [5].

[2] = ChromLogD pH7.4 (chromatographic hydrophobicity index); assay type: physicochemical; conditions: pH 7.4; CHIpH7.4 × 0.0857–2; read-out: ChromlogDpH7.4
intracellular T. cruzi = system: intracellular T. cruzi; set-up: method as in PMID 25740547; conditions: HTS in NIH-3T3 fibroblasts; cited from earlier work
[3] = Aqueous (kinetic) solubility by CAD; assay type: physicochemical; conditions: kinetic solubility measured by CAD
Method: 2.1 Aqueous solubility: This assay was conducted as previously described in [4].

[4] = system: T. cruzi infected Vero cells; experiment: Washout assay; assay type: cell-based, Trypanosoma cruzi; conditions: for Relapse Day: 8 days treatment
Method: (§1) (Supplementary Information, Fig. S1). We tested 1 in a T. cruzi washout assay to assess the compound's ability to clear all parasites in vitro. In this experiment, T. cruzi, cultured in Vero cells were treated with compound 1 at 20- to 30-fold the EC50 for 8 days (with compound being re-supplemented after 4 days). After treatment, the culture medium containing compound 1 was removed, the cell monolayer was washed extensively and then incubated with fresh medium containing no compound 1. […] The same result was obtained in three independent experiments (Supplementary Information, Table S1). […] We therefore ran a 4-day PK study on 1, dosing at 50 mg/kg twice daily. As the intrinsic clearance was very high, compound 1 was co-dosed with 1-ABT (1-aminobenzotriazole) to inhibit CYP-mediated degradation and maximise exposure. […] As this was a novel series with an unknown mechanism of action, the PKPD drivers were unknown, so this coverage was considered suitable for progression to an animal model of Chagas disease. Compound 1 was dosed twice daily at 50 mg/kg for 5 days in an acute Chagas disease mouse efficacy study. This mouse model, developed by the Kelly laboratory, is able to distinguish between benznidazole (clinically effective) and posaconazole (clinically ineffective).
1.2 Washout assay: Vero cells were infected overnight at MOI 5 with T. cruzi X10/7 A1 trypomastigotes in MEM media (Gibco) containing 10% FCS (Hyclone) followed by washing of the monolayer to remove any extracellular trypomastigotes. 24 h later, infected cells were trypsinised and plated in T25 flasks in presence of compounds at the indicated concentrations and incubated for 8 days in MEM media (Gibco) containing 1% FCS. Four days into the treatment the media was replaced with fresh compound-containing media. After the treatment period, monolayers were washed extensively. The cultures were then maintained, replacing media twice weekly, until trypomastigotes could be observed by light microscopy. Observations were carried out twice weekly for up to 60 days post washout.
Results for three independent washout experiments (experiment c is reported in the main manuscript). T. cruzi infected Vero cells were treated for 8 days at the indicated concentrations (compounds replenished after 4 days), followed by extensive washing to remove compounds and incubation until parasites were observed microscopically. ^a day after washout of compounds on which egressed parasites were detected first.

[5] = system: intracellular T. cruzi X10/7 A1 amastigotes; experiment: Intracellular T. cruzi assay; assay type: cell-based, Trypanosoma cruzi; conditions: Trypanosoma cruzi; potency against intracellular T. cruzi amastigotes; at least three independent replicates, standard deviations ≤0.2; read-out: T. cruzi (pEC50) (converted)
Method: 1.1 Intracellular T. cruzi assay: Potency against intracellular T. cruzi X10/7 A1 amastigotes was determined as described previously with as sole modification that the compound treatment duration was increased from 72h to 96h.

[6] = system: intracellular T. cruzi X10/7-E2Crimson; experiment: Rate-of-kill studies; assay type: cell-based, Trypanosoma cruzi; conditions: compared with posaconazole (CYP51 inhibitor)
Method: 1.3 Rate-of-kill studies: Experiments with intracellular T. cruzi X10/7-E2Crimson were carried out as previously described in [2].

[7] = Blood exposure in the acute efficacy study; assay type: in vivo, mouse; conditions: days 1 and 5; 50 mg/kg b.i.d. with 1-ABT
Method: as §1, with “Compound 1 was dosed twice daily at 50 mg/kg for 5 days in an acute Chagas disease mouse efficacy study. This mouse model, developed by the Kelly laboratory, is able to distinguish between benznidazole (clinically effective) and posaconazole (clinically ineffective).” left out
(§2) Fig. 2 Results of acute T. cruzi infection efficacy study. […] 5 day dosing begins on day 14 (b) Quantification (Total Flux [p/s]) of combined ventral and dorsal bioluminescence for the mice shown in (c). […] (For interpretation of the references to colour in this figure legend, the reader is referred to the Web version of this article.)

T. cruzi = experiment: Acute Chagas disease mouse efficacy study (bioluminescence imaging); assay type: in vivo, Trypanosoma cruzi
Method: as §1, with “Compound 1 was dosed twice daily at 50 mg/kg for 5 days in an acute Chagas disease mouse efficacy study. This mouse model, developed by the Kelly laboratory, is able to distinguish between benznidazole (clinically effective) and posaconazole (clinically ineffective).” left out
as §2, with “article.) […]” for “article.)”

T. cruzi CYP51 = T. cruzi CYP51 (Trypanosoma cruzi, UniProt Q7Z1V1); experiment: CYP51 assay; assay type: biochemical; conditions: read-out: T.cruzi CYP51 (pIC50) (converted)
Method: 1.4 CYP51 assay: Potency against T. cruzi CYP51 was determined as previously described in [3].

Sequence of T. cruzi CYP51 (Q7Z1V1 whole entry): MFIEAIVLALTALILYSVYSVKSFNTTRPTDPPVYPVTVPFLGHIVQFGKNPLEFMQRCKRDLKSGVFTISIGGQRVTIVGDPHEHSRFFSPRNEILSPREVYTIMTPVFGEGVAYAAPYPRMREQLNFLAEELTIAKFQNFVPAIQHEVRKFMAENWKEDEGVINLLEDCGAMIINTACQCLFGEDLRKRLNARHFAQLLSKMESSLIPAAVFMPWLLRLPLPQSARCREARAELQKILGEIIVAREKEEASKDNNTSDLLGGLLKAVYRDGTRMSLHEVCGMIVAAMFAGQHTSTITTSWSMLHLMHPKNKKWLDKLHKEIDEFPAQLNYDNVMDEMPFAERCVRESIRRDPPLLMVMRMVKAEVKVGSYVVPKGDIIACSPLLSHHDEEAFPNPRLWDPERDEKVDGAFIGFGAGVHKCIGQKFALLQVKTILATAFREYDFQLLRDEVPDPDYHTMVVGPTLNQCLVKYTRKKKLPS

**Q.** Which “Mouse CLi” value [1] does the source give for `Cc1ccc(S(=O)(=O)Nc2ccc(CN3CCN(C(=O)c4cccc(C#N)c4)CC3)cc2)cc1` [TCMDC-143497] here?
**A.** The value was 30 mL/min/g.

**Q.** What about the chromatographic logD [2] of the same molecule?
**A.** Its chromatographic logD is 4.8.

**Q.** What about the “T. cruzi pEC50 (reported potency)” value (intracellular T. cruzi) of the same molecule?
**A.** The value was 6.4.

**Q.** And the solubility [3]?
**A.** The solubility was 85 µM (≈ 40.3 µg/mL).

**Q.** With `O=C(Cn1ccnc1[N+](=O)[O-])NCc1ccccc1` [benznidazole] as the molecule, how does the “Relapse Day” value ([4]; experiment a, replicate 1, 36 µM, 12.5-fold EC50) read?
**A.** Its value is 18 days.

**Q.** What about the “Relapse Day” value ([4]; experiment a, replicate 2, 36 µM, 12.5-fold EC50) of the same molecule?
**A.** The value was 14 days.

**Q.** What about the “Relapse Day” value ([4]; experiment b, 36 µM, 12.5-fold EC50) of the same molecule?
**A.** Its value is 14 days.

**Q.** What about the “Relapse Day” value ([4]; experiment c, 36 μM, 12.5-fold EC50) of the same molecule?
**A.** Its value is 18 days.

**Q.** What about the “Relapse Day” value ([4]; experiment c, 144 μM, 50-fold EC50, observed up to 60 days) of the same molecule?
**A.** Its value is greater than 60 days.

**Q.** For `Cc1ccc(S(=O)(=O)Nc2ccc(CN3CCN(C(=O)c4cccc(Cl)c4)CC3)cc2)cc1` [Compound 1, N-(4-((4-(3-chlorobenzoyl)piperazin-1-yl)methyl)phenyl)-4-methylbenzenesulfonamide], which “Mouse CLi” value [1] is on record?
**A.** The value was greater than 50 mL/min/g.

**Q.** What about the chromatographic logD [2] of the same molecule?
**A.** Its chromatographic logD is 5.8.

**Q.** What about the EC50 [5] of the same molecule?
**A.** Its EC50 is 0.158 µM.

**Q.** What about the Rate-of-kill profile [6] of the same molecule?
**A.** The Rate-of-kill profile was “faster kill profile”.

**Q.** What about the “Total blood exposure relative to in vitro EC99” value [7] of the same molecule?
**A.** The value was “exceeded the in vitro EC99 for the duration of dosing”.

**Q.** And the solubility [3]?
**A.** Its solubility is 38 µM (≈ 18.4 µg/mL).

**Q.** What about the Outcome after immunosuppression (T. cruzi; 50 mg/kg b.i.d. for 5 days with 1-ABT, cyclophosphamide 200 mg/kg i.p. days 28, 32, 36) of the same molecule?
**A.** The Outcome after immunosuppression was “relapse is observed post immunosuppression”.

**Q.** What about the Parasite burden (T. cruzi; 50 mg/kg b.i.d. for 5 days, 1-ABT 50 mg/kg pre-treatment, compared to vehicle) of the same molecule?
**A.** The Parasite burden was “reduction in parasite burden compared to vehicle”.

**Q.** What about the “Time after washout until parasite relapse was observed” value ([4]; 20- to 30-fold the EC50 for 8 days, re-supplemented after 4 days) of the same molecule?
**A.** Its value is roughly 2 weeks.

**Q.** And the “Relapse Day” value ([4]; experiment a, 5 µM, 32-fold EC50)?
**A.** The value was 11 days.

**Q.** And the “Relapse Day” value ([4]; experiment b, 5.5 µM, 35-fold EC50)?
**A.** Its value is 14 days.

**Q.** And the “Relapse Day” value ([4]; experiment c, 3.9 μM, 25-fold EC50, day after washout on which egressed parasites first detected)?
**A.** Its value is 11 days.

**Q.** What about the IC50 (T. cruzi CYP51) of the same molecule?
**A.** Its IC50 is 20 µM.
